Here are results for 13 compounds from US8138191B2, “Inhibitor compounds and cancer treatment methods” (Critical Outcome Technologies Inc., priority 2007, dated 2012).

The subject of data set [1] is NCI/DTP 60 cell line panel. The conditions noted are these: NOT including DMS114 and SHP-77; cited from earlier work.
A further data set concerns Standard lab mice. As to the kind of experiment: Escalating dose acute toxicity study in mice. As to conditions: 4, 8, 16 mg/kg alternate day IP, 28 days. The text has this: Mice were given alternate day IP injections for 28 days. […] Blood and tissue samples were harvested for histopathology.
The test system of another data set is U87. As to the kind of experiment: IC50 human glioma/astrocytoma cell lines (alamar Blue), U87. On the technique in general: Alamar Blue is a resazurin reagent that responds to reducing activity.
The subject of the next data set is SNB-19. Description: IC50 human glioma/astrocytoma cell lines (alamar Blue), SNB-19.
Data set [2] has as its system SHP-77 human SCLC cell line tumor xenografts. As to the kind of experiment: Nude mouse model of human SCLC, SHP-77 xenografts. In kind it is in vivo. The conditions noted are these: for average number of tumors per injection site / mean tumor volume: IP on alternate days from Day 3, 31 days. The method, then:
The nude mouse model of human SCLC was used to evaluate the in vivo efficacy of compounds of the present invention in comparison with several known chemotherapeutic agents. Nude mice were obtained form the National Cancer Institute and the SHP-77 human SCLC cell line was chosen for metastatic tumor xenografts. The control group consisted of 10 animals, each of which were administered bilateral thigh injections of a prescribed volume of tumor cells. There were 6 treatment groups, each containing 5 animals: COTI-2, COTI-4, COTI-219, Taxotere® (docetaxel), Cisplatin® (cis-diamminedichloroplatinum) and Tarceva® (erlotinib) The therapeutic agent was administered by intraperitoneal (IP) injection on alternate days beginning on Day 3 post tumor cell injection. Each animal in a treatment group was administered bilateral thigh injections with the same prescribed volume of tumor cells as the control animals. Treatment continued for 31 days, following which the animals were euthanized and tissues were collected for subsequent analysis.

A further data set has as its system DMS153. Description: Resistance testing over 5 generations, DMS153. In kind it is cell-based, human. The conditions noted are these: DMS153, 5 generations. The method, then: (§1) In order to evaluate the induction of resistance in vitro, compounds according to the invention were tested in head to head comparisons against conventional therapeutic agents Cisplatin® and Taxotere®. The compound designated COTI-4 (which is the subject of Applicant's co-pending U.S. provisional patent application entitled “Composition and Method for Treatment” filed Dec. 26, 2007) was also tested. The structure for COTI-4 is:
(§2) IC50 values were obtained using methods known to persons skilled in the art with two different human SCLC cell lines (DMS153 and SHP77) obtained from the National Cancer Institute. […] The procedure was repeated for a total of 5 generations. Emerging resistance was identified by increasing IC50 values in successive generations.

The test system of another data set is SHP77. As to the kind of experiment: Resistance testing over 5 generations, SHP77. It counts as cell-based, human. As to conditions: SHP77, 5 generations. The method, then: as §1, §2
A further data set concerns U87 glioblastoma cells. Description: Proliferation of U87 glioblastoma cells (alamarBlue), single agents and combinations with temsirolimus or rapamycin. As to conditions: Homo sapiens; U87, single agent, triplicate experiments. It counts as cell-based. The method, then:
In vitro IC50 values were obtained for combinations of compounds of the present invention with temsirolimus or rapamycin in the treatment of U87 glioblastoma cells. Temsirolimus and rapamycin both inhibit proliferation of human U87 glioblastoma cells, as single agents (FIG. 14). […] Both inhibit proliferation of these cells with increasing concentration.
Temsirolimus was provided in liquid form from the London Regional Cancer Program (LRCP) Pharmacy. COTI-219 was prepared as a 50 mM stock in DMSO, then diluted to 10 mM in DMSO followed by serial dilution water for addition to medium overlaying cells. Cells were incubated with temsirolimus in combination with COTI-219 for 4 days (in wells of 96 well plates) followed by analysis of live cell density using the fluorescent vital stain alamarBlue.
All data points are means±SEM (n=6). Error bars are, in every case, smaller than the size of the symbol.
Rapamycin was prepared by crushing and extracting a tablet (supplied from the LRCP Pharmacy) with DMSO, followed by centrifugation to remove particulate matter. COTI-219 was prepared as a 50 mM stock in DMSO, then diluted to 10 mM in DMSO followed by serial dilution water for addition to medium overlaying cells. […]

The test system of another data set is DMS114 cells. Description: Proliferation with anti-cancer agents plus COTI-2, DMS114. In kind it is cell-based, human. As to conditions: DMS114.
For another data set, the system named is SHP 77 cells. Description: Proliferation with anti-cancer agents plus COTI-2, SHP 77. The conditions noted are these: SHP 77. In kind it is cell-based, human.
Data set [3] deals with PI3K activity in SHP77 cells. Description: PI3-K activity (PIP3 detection, Echelon kit), SHP77. In kind it is cell-based, human. As to conditions: SHP77, 50 μM inhibitor + 250 nM COTI-2. The text has this: As a negative control, an equivalent volume of DMSO was utilized. […] To measure PI3-K activity, a commercial kit was purchased from Echelon. Following the procedures recommended by the manufacturer, membrane lipids were extracted in several steps and the resulting PIP3 was immobilized to nitrocellulose and measured by its interaction with a PH-domain containing protein and HRP-conjugated antibody supplied with the kit. As an additional control in these experiments, the specific PI3-K inhibitor, LY294002 was used to inhibit PI3-K and thus stop PIP3 production.

Another data set has as its system SW620. As to the kind of experiment: Tumor cell proliferation, single agents and combinations, SW620. It counts as cell-based, human. The conditions noted are these: for IC50: Homo sapiens. The method, then:
(§3) The 3 cell lines were treated as follows:
(§4) Day 1: Cells were plated in 96-well flat bottom plates (VWR, Mississauga, ON, Canada) and allowed to adhere overnight.
(§5) All treated and control cells were, therefore, exposed to a 1% DMSO concentration plus the desired concentration of COTI-2.
(§6) The CI, a numerical value calculated as described in equation A, also provides a quantitative measure of the extent of drug interaction. A CI of less than, equal to, and more than 1 indicates synergy, additivity, and antagonism, respectively. CI=(CAx/ICx,A)+(CB,x/ICx,B) Equation A: Where CA,x and CB,x, are the concentrations of drug A and drug B used in combination to achieve x % drug effect. ICx,A and ICx,B are the concentrations for single agents to achieve the same effect.

For another data set, the system named is H1975. Description: CellTiter-Blue growth inhibition, single agents and combinations, H1975. In kind it is cell-based. As to conditions: Homo sapiens, NCI-H1975; H1975, NSCLC, EGFR - MUT, 72 h; read-out: Mean IC50, single agent. The method, then:
(§7) The stock concentration was further diluted to 1 mM and added to a drug plate. […] Following dilution, 2 μl of test agent was transferred to the corresponding wells of a cell-containing 96-well plate with 198 μl of growth media. Tarceva® (erlotinib) was supplied by LC Labs (Woburn, Mass.).
(§8) Viable cell numbers were quantified by the CellTiter-Blue® cell viability assay, which measures the conversion of the indicator dye (resazurin) to resorufin, an indicator of cell viability. Experiments were repeated at least twice with the same concentrations to determine growth inhibitory activity.
as §6

Another data set relates to COLO-205. As to the kind of experiment: Tumor cell proliferation, single agents and combinations, COLO-205. In kind it is cell-based, human. The conditions noted are these: for IC50: Homo sapiens. The method, then: as §3, §4, §5, §6
A further data set has as its system H292. Description: CellTiter-Blue growth inhibition, single agents and combinations, H292. It counts as cell-based. The conditions noted are these: Homo sapiens, NCI-H292; H292, NSCLC, EGFR - WT, 72 h; read-out: Mean IC50, single agent. The method, then: as §7, §8, §6
Another data set relates to HCT-15. As to the kind of experiment: Tumor cell proliferation, single agents and combinations, HCT-15. In kind it is cell-based. As to conditions: Homo sapiens; HCT-15, Colon, KRAS - MUT; read-out: Mean IC50, single agent. The method, then: as §3, §4, §5, §6

Like-named read-outs stand apart in the source and are kept apart here. Some results are limits rather than exact numbers.

Description for SNB-19: Cell lines were obtained from the Human Tissue Culture Collection (ATCC), grown and maintained under ATCC-specified conditions, and tested to ensure viability and lack of contaminating mycoplasma and common viruses. […] A viability stain (alamar Blue) was added to cells after 4-7 days of drug exposure (approximately 4 doublings of control cells; maximum cell density in wells approximately 80%), and assayed for total cellular metabolic activity (a function of population density of live cells) by absorbance.

For `COc1ccc(NC(=S)N=Nc2c(O)[nH]c3c(Cl)cc(Cl)cc23)cc1` [NSC73306], in data set [1], the “Mean Over NCI/DTP 60 cell line panel (LogGI50)” value is −4.9.
On to `CN1CCN(C(=S)NN=C(c2ccccn2)c2ccccn2)CC1` [COTI-4], for which, in the data set with Standard lab mice, the “acute toxicity / adverse effects” value is given as “No evidence of acute toxicity” and the weight loss entry is recorded as “None of the drugs produced any weight loss”.
On to `N.N.[Cl][Pt][Cl]` [Cisplatin, cis-diamminedichloroplatinum, reference compound], for which the IC50 in the data set with U87 (U87, 4-7 days) was found to be 0.49 µM; in the data set on SNB-19 (SNB-19, 4-7 days) it was 0.87 µM. For the same compound, in data set [2], the “average number of tumors per injection site” value is recorded as 0.48. Also, the mean tumor volume in data set [2] is listed as 132+/−26 mm^3. For the same compound, the “emerging resistance: ratio of IC50 to IC50 of parental generation” value in the data set on DMS153 and in the data set on SHP77 was “significant increases in IC50” each time.
`CO[C@H]1C[C@@H]2CC[C@@H](C)[C@@](O)(O2)C(=O)C(=O)N2CCCC[C@H]2C(=O)O[C@H]([C@H](C)C[C@@H]2CC[C@@H](O)[C@H](OC)C2)CC(=O)[C@H](C)/C=C(\C)[C@@H](O)[C@@H](OC)C(=O)[C@H](C)C[C@H](C)/C=C/C=C/C=C/1C` [Rapamycin, rapamycin]: the IC50 in the data set with U87 glioblastoma cells worked out at 9.9 µM.
Consider `CCC1=C[C@@H]2CN(C1)Cc1c([nH]c3ccccc13)[C@@](C(=O)OC)(c1cc3c(cc1OC)N(C)[C@H]1[C@@](O)(C(=O)OC)[C@H](OC(C)=O)[C@]4(CC)C=CCN5CC[C@]31[C@@H]54)C2` [Vinorelbine, reference compound], for which the “effect of combination with COTI-2 on proliferation” value in the data set with DMS114 cells and in the data set on SHP 77 cells was “additive effect” in each case.
Turning to `CO[C@H]1C[C@@H]2CC[C@@H](C)[C@@](O)(O2)C(=O)C(=O)N2CCCC[C@H]2C(=O)O[C@H]([C@H](C)C[C@@H]2CC[C@@H](OC(=O)C(C)(CO)CO)[C@H](OC)C2)CC(=O)[C@H](C)/C=C(\C)[C@@H](O)[C@@H](OC)C(=O)[C@H](C)C[C@H](C)/C=C/C=C/C=C/1C` [Temsirolimus, temsirolimus], the IC50 in the data set with U87 glioblastoma cells was 3.6 µM.
`Nc1ccn([C@@H]2O[C@H](CO)[C@@H](O)C2(F)F)c(=O)n1` [Gemcitabine, reference compound]: the “effect of combination with COTI-2 on proliferation” value with DMS114 cells and in the data set with SHP 77 cells was “additive effect” throughout.
As to `O=c1cc(N2CCOCC2)oc2c(-c3ccccc3)cccc12` [LY294002, reference compound], the “PIP3 detected in the presence of the PI3K-inhibitor” value in data set [3] is “approximately 14 pmol”.
Take `CC(=O)O[C@@]12CO[C@@H]1C[C@H](O)[C@@]1(C)C(=O)[C@H](O)C3=C(C)[C@@H](OC(=O)[C@H](O)[C@@H](NC(=O)OC(C)(C)C)c4ccccc4)C[C@@](O)([C@@H](OC(=O)c4ccccc4)[C@H]21)C3(C)C` [Taxotere®, docetaxel, reference compound]: the “average number of tumors per injection site” value in data set [2] is given as 0.48. The compound further came in with a mean tumor volume in data set [2] of 183 mm^3. Besides, the “emerging resistance: ratio of IC50 to IC50 of parental generation” value with DMS153 and with SHP77 was “significant increases in IC50” throughout.
As for `O=NN(CCCl)C(=O)NCCCl` [BCNU, 1,3-Bis(2-chloroethyl)-1-nitrosourea, reference compound], the IC50 in the data set with U87 (Homo sapiens, U-87 MG) was found to be 1.52 µM; in the data set on SNB-19 (Homo sapiens, SNB-19), 2.25 µM.
In the case of `Oc1[nH]c2ccccc2c1N=NC(=S)N1CCCCCC1` [NSC668496], the “Mean Over NCI/DTP 60 cell line panel (LogGI50)” value in [1] was −6.1.
For the compound `C#Cc1cccc(Nc2ncnc3cc(OCCOC)c(OCCOC)cc23)c1` [Tarceva®, erlotinib], the IC50 in the data set with SW620 (SW-620, 96 h, read-out: concentration to reduce growth by 50% (IC50), SW620, 4 day assessment) is over 10 µM; in the data set on SW620 (SW-620, SW620, Colon, KRAS - MUT, read-out: Mean IC50, single agent), over 10 µM; in the data set with H1975, over 100 µM; in the data set with COLO-205 (96 h, read-out: concentration to reduce growth by 50% (IC50), COLO-205, 4 day assessment), over 10 µM; in the data set on COLO-205 (COLO-205, Colon, KRAS - WT, read-out: Mean IC50, single agent) it was over 10 µM; in the data set on H292, 0.02 µM. For the same compound, in the data set on HCT-15, the IC50 is 5.1 µM. The “highest concentration that did not significantly affect growth” value is 5 µM in the data set with SW620 (SW620) and 10 µM in the data set with COLO-205 (COLO 205). In data set [2] (31 days), the “survival of treated animals to study conclusion” value is on record as “died before study conclusion”.
Take `C=CCNC(=S)N=Nc1c(O)n(CN2CCOCC2)c2ccc([N+](=O)[O-])cc12` [NSC716768]: the “Mean Over NCI/DTP 60 cell line panel (LogGI50)” value in [1] is given as −4.7.
